The source of these data is patent US20260265259A1, “SUBSTITUTED 6-IMIDAZOPYRIDAZINE IL-17A MODULATORS AND USES THEREOF” (DICE ALPHA, INC., priority 2023, published 2026).

Like-named read-outs stand apart in the source and are kept apart here. Where only a bound is given, the exact number is not on record here.

This assay deals with IL-17A/A. The assay is described as follows: IL-17A/A HEK-Blue cell assay. The format is cell-based. The conditions noted are these: IL-17A/A inhibition, HEK-Blue IL-17A reporter cell line, IL17A/A 5 ng/mL. As to the method:
The HEK-Blue IL-17A reporter cell line (Fisher #NC1408637) was used for cell-based IL-17A/A inhibition assays. Cells were grown and prepared for assays according to the manufacturer's instructions. This cell line consists of HEK 293 cells that were designed to expressed IL-17RA, IL-17RC, and the Act1 adapter molecule, the combination of which, when stimulated by IL-17A/A or IL17A/F activates a NFκB promoter and drives expression of the recombinant Secreted Alkaline Phosphatase (SEAP) gene. Media from the cells is then added to a development reagent (Quanti-Blue Substrate, Fisher #NC9711613), and read at A630.
Compounds were dispensed in DMSO to an empty clear 384-well tissue culture plate in a titration ranging from 10 μM to 27 pM, with DMSO added to every well to a final concentration of 0.1%. Cells were then added to the plate (45 μL/well at a concentration of 280,000 cells/mL). IL17A/A (Genscript #Z03228) or IL17A/F (R&D Systems) was added to the plate to a final concentration of 5 ng/mL and a final well volume of 50 μL. The cells, compound, and IL-17A/A or IL17A/F were then incubated for 20 hours before media was removed for SEAP analysis. The resulting inhibition curve was then analyzed using Dotmatics' integrated 4-parameter fit screening protocol to generate IC50 values.

The mark [1] stands for this setting: 20 hours, SEAP read at A630, read-out: AA IC50.
Setting [2] is: HEK-Blue, 20 h, SEAP read at A630, read-out: AA IC50.

As for `CCn1nccc1C(=O)N[C@H](c1cn2nc(C[C@@H]3C[C@@H](C(F)(F)F)CNC3=O)c(N3CCOCC3C)cc2n1)C1CCC(F)(F)CC1` (stereo partly drawn) [Compound 96], the IC50 under setting [1] was greater than 1000 nM.
Turning to `CCn1nccc1C(=O)N[C@H](c1cn2nc(C[C@H]3C[C@@H](C(F)(F)F)CNC3=O)c(N3CC(O)C3)cc2n1)C1CCC(F)(F)CC1` [Compound 98], the IC50 under setting [2] was in the range of 100 to 1000 nM.
Consider `CCn1nccc1C(=O)N[C@H](c1cn2nc(C[C@H]3C[C@@H](C(F)(F)F)CNC3=O)c(N3CC4CC3CO4)cc2n1)C1CCC(F)(F)CC1` (stereo partly drawn) [Compound 52], for which the IC50 under setting [1] is less than 100 nM.
In the case of `CCn1nccc1C(=O)N[C@H](c1cn2nc(C[C@H]3C[C@@H](C(F)(F)F)CNC3=O)c(C3=CCOC3)cc2n1)C1CCC(F)(F)CC1` [Compound 58], the IC50 under setting [2] is 100 to 1000 nM.
As for `CCn1nccc1C(=O)N[C@H](c1cn2nc(C[C@H]3C[C@@H](C(F)(F)F)CNC3=O)c(N3CCC(OC)C3)cc2n1)C1CCC(F)(F)CC1` (stereo partly drawn) [Compound 77], the IC50 under setting [2] was less than 100 nM.
In the case of `CCn1nccc1C(=O)N[C@H](c1cn2nc(C[C@H]3C[C@@H](C(F)(F)F)CNC3=O)c(C3CCCOC3)cc2n1)C1CCC(F)(F)CC1` (stereo partly drawn) [Compound 12], under setting [1], the IC50 is less than 100 nM.
Turning to `O=C(N[C@H](c1cn2nc(CC3C[C@@H](C(F)(F)F)CNC3=O)c(N3CCOCC3)cc2n1)C1CCC(F)(F)CC1)c1nonc1C1CC1` (stereo partly drawn) [Compound 15], under setting [2], the IC50 was less than 100 nM.
Still for that read-out and setting: under `CCn1nccc1C(=O)N[C@H](c1cn2nc(C[C@@H]3C[C@@H](C(F)(F)F)CNC3=O)c(C3CCOC3)cc2n1)C1CCC(F)(F)CC1` (stereo partly drawn) [Compound 10] stands 100 to 1000 nM.
As to `O=C(N[C@H](c1cn2nc(C[C@H]3C[C@@H](C(F)(F)F)CNC3=O)c(C3CCOC3)cc2n1)[C@H]1CCCC(F)(F)C1)c1nonc1C1CC1` (stereo partly drawn) [Compound 73], the IC50 under setting [1] is less than 100 nM.
For the compound `CCn1nccc1C(=O)N[C@H](c1cn2nc(C[C@H]3C[C@@H](C(F)(F)F)CNC3=O)c(CN(C)C3CC3)cc2n1)C1CCC(F)(F)CC1` [Compound 113, N—((S)-(7-((cyclopropyl(methyl)amino)methyl)-6-(((3R,5R)-2-oxo-5-(trifluoromethyl)piperidin-3-yl)methyl)imidazo[1,2-b]pyridazin-2-yl)(4,4-difluorocyclohexyl)methyl)-1-ethyl-1H-pyrazole-5-carboxamide], the IC50 under setting [2] is less than 100 nM.
The same measure, in the same setting: in the case of `CCn1nccc1C(=O)N[C@H](c1cn2nc(C[C@H]3C[C@@H](C(F)(F)F)CNC3=O)c(N3CCN(C)CC3)cc2n1)C1CCC(F)(F)CC1` [Compound 20] it was less than 100 nM; in that of `CCn1nccc1C(=O)N[C@H](c1cn2nc(C[C@H]3C[C@@H](C(F)(F)F)CNC3=O)c(N3CCOCC3C)cc2n1)C1CCC(F)(F)CC1` (stereo partly drawn) [Compound 32], 100 to 1000 nM; in that of `CCn1nccc1C(=O)N[C@H](c1cn2nc(C[C@H]3C[C@@H](C(F)(F)F)CNC3=O)c(C3CCCCC3)cc2n1)C1CCC(F)(F)CC1` [Compound 76], less than 100 nM.
In the case of `CCn1nccc1C(=O)N[C@H](c1cn2nc(C[C@@H]3C[C@@H](C(F)(F)F)CNC3=O)c(C3CCOC3)cc2n1)C1CCC(F)(F)CC1` (stereo partly drawn) [Compound 11], the IC50 under setting [1] fell in the range of 100 to 1000 nM.
As for `CCn1nccc1C(=O)N[C@H](c1cn2nc(C[C@H]3C[C@@H](C(F)(F)F)CNC3=O)c(N3CCOCC3)cc2n1)[C@H]1CCCC(F)(F)C1` [Compound 25], the IC50 under setting [2] is less than 100 nM.
Same read-out and setting: in the case of `CCn1nccc1C(=O)N[C@H](c1cn2nc(C[C@H]3C[C@@H](C(F)(F)F)CNC3=O)c(C3CCOC(C)(C)C3)cc2n1)C1CCC(F)(F)CC1` (stereo partly drawn) [Compound 87] it was less than 100 nM; in that of `CCn1nccc1C(=O)N[C@H](c1cn2nc(C[C@H]3C[C@@H](C(F)(F)F)CNC3=O)c(C3CCOC3)cc2n1)[C@H]1CCCC(F)(F)C1` (stereo partly drawn) [Compound 67], less than 100 nM.
Same read-out and setting: in the case of `CCn1nccc1C(=O)N[C@H](c1cn2nc(C[C@H]3C[C@@H](C(F)(F)F)CNC3=O)c(N3CC4CC(C3)O4)cc2n1)C1CCC(F)(F)CC1` [Compound 35] it was less than 100 nM; in that of `CCn1nccc1C(=O)N[C@H](c1cn2nc(C[C@H]3C[C@@H](C(F)(F)F)CNC3=O)c(CNC)cc2n1)C1CCC(F)(F)CC1` [Compound 112, N—((S)-(4,4-difluorocyclohexyl)(7-((methylamino)methyl)-6-(((3R,5R)-2-oxo-5-(trifluoromethyl)piperidin-3-yl)methyl)imidazo[1,2-b]pyridazin-2-yl)methyl)-1-ethyl-1H-pyrazole-5-carboxamide], less than 100 nM; in that of `CC(C)n1nccc1C(=O)N[C@H](c1cn2nc(C[C@H]3C[C@@H](C(F)(F)F)CNC3=O)c(N3CCOCC3)cc2n1)[C@@H]1CCCC(F)(F)C1` [Compound 28], less than 100 nM.
Regarding `CCn1nccc1C(=O)N[C@H](c1cn2nc(C[C@H]3C[C@@H](C(F)(F)F)CNC3=O)c(CN(C)C)cc2n1)C1CCC(F)(F)CC1` [Compound 111, N—((S)-(4,4-difluorocyclohexyl)(7-((dimethylamino)methyl)-6-(((3R,5R)-2-oxo-5-(trifluoromethyl)piperidin-3-yl)methyl)imidazo[1,2-b]pyridazin-2-yl)methyl)-1-ethyl-1H-pyrazole-5-carboxamide], the IC50 under setting [2] is less than 100 nM.
Take `CCn1nccc1C(=O)N[C@H](c1cn2nc(C[C@H]3C[C@@H](C(F)(F)F)CNC3=O)c(C3CCCCO3)cc2n1)C1CCC(F)(F)CC1` (stereo partly drawn) [Compound 84]: under setting [2], the IC50 was less than 100 nM.
As for `CCn1nccc1C(=O)N[C@H](c1cn2nc(C[C@H]3C[C@@H](C(F)(F)F)CNC3=O)c(C3CCCC3)cc2n1)C1CCC(F)(F)CC1` [Compound 46], the IC50 under setting [2] was less than 100 nM.
On the same count and under the same terms, in the case of `CCn1nccc1C(=O)N[C@H](c1cn2nc(C[C@H]3C[C@@H](C(F)(F)F)CNC3=O)c(C3CCOCC3)cc2n1)C1CCC(C)CC1` (stereo partly drawn) [Compound 86] it was less than 100 nM.
The same measure, in the same setting: in the case of `CCn1nccc1C(=O)N[C@H](c1cn2nc(CC3C[C@@H](C(F)(F)F)CNC3=O)c(N3CCOCC3)cc2n1)C1CCC(F)(F)CC1` (stereo partly drawn) [Compound 14] it was less than 100 nM; in that of `CCn1nccc1C(=O)N[C@H](c1cn2nc(C[C@H]3C[C@@H](C)CNC3=O)c(C3CCOCC3)cc2n1)C1CCC(F)(F)CC1` [Compound 100, N—((1S)-(4,4-difluorocyclohexyl)(6-(((5R)-5-methyl-2-oxopiperidin-3-yl)methyl)-7-(tetrahydro-2H-pyran-4-yl)imidazo[1,2-b]pyridazin-2-yl)methyl)-1-ethyl-1H-pyrazole-5-carboxamide], 100 to 1000 nM; in that of `CCn1nccc1C(=O)N[C@H](c1cn2nc(C[C@H]3C[C@@H](C(F)(F)F)CNC3=O)c(C3COC3)cc2n1)C1CCC(F)(F)CC1` [Compound 5], less than 100 nM.
With `O=C(N[C@H](c1cn2nc(C[C@H]3C[C@@H](C(F)(F)F)CNC3=O)c(C3CCOCC3)cc2n1)C1CCC(F)(F)CC1)c1ccnn1C1CC1` [Compound 91], the IC50 under setting [2] was less than 100 nM.
Take `CCn1nccc1C(=O)N[C@H](c1cn2nc(C[C@H]3C[C@@H](C(F)(F)F)CNC3=O)c(C3CCCCO3)cc2n1)C1CCC(F)(F)CC1` (stereo partly drawn) [Compound 85]: the IC50 under setting [1] was less than 100 nM.
For `CC(C)n1ncnc1C(=O)N[C@H](c1cn2nc(C[C@H]3C[C@@H](C(F)(F)F)CNC3=O)c(C3CCOCC3)cc2n1)C1CCC(F)(F)CC1` [Compound 90], the concentration for half-maximal inhibition (IC50) under setting [2] is less than 100 nM.
Same read-out and setting: in the case of `CCn1nccc1C(=O)N[C@H](c1cn2nc(C[C@H]3C[C@H](C)CNC3=O)c(C3CCOCC3)cc2n1)C1CCC(F)(F)CC1` [Compound 102, N—((1S)-(4,4-difluorocyclohexyl)(6-(((5S)-5-methyl-2-oxopiperidin-3-yl)methyl)-7-(tetrahydro-2H-pyran-4-yl)imidazo[1,2-b]pyridazin-2-yl)methyl)-1-ethyl-1H-pyrazole-5-carboxamide] it was 100 to 1000 nM.
As for `CCn1nccc1C(=O)N[C@H](c1cn2nc(C[C@H]3C[C@@H](C(F)(F)F)CNC3=O)c(C3CCOC3)cc2n1)[C@@H]1CCCC(F)(F)C1` (stereo partly drawn) [Compound 72], the IC50 under setting [1] is less than 100 nM.
`CCn1nccc1C(=O)N[C@H](c1cn2nc(C[C@H]3C[C@@H](C(F)(F)F)CNC3=O)c(N3CC4CC3CO4)cc2n1)C1CCC(F)(F)CC1` (stereo partly drawn) [Compound 51]: the IC50 under setting [2] was less than 100 nM.
`CCn1nccc1C(=O)N[C@H](c1cn2nc(C[C@H]3C[C@@H](C(F)(F)F)CNC3=O)c(C3CCN(C)C3)cc2n1)C1CCC(F)(F)CC1` (stereo partly drawn) [Compound 62]: under setting [1], the IC50 was 100 to 1000 nM.
Turning to `CCn1nccc1C(=O)N[C@H](c1cn2nc(C[C@H]3C[C@@H](C(F)(F)F)CNC3=O)c(C3CCCOC3)cc2n1)[C@H]1CCCC(F)(F)C1` (stereo partly drawn) [Compound 63], the IC50 under setting [2] is less than 100 nM.
Still for that read-out and setting: under `CCn1nccc1C(=O)N[C@H](c1cn2nc(C[C@H]3C[C@@H](C(F)(F)F)CNC3=O)c(CN(C)C3COC3)cc2n1)C1CCC(F)(F)CC1` [Compound 114, N—((S)-(4,4-difluorocyclohexyl)(7-((methyl(oxetan-3-yl)amino)methyl)-6-(((3R,5R)-2-oxo-5-(trifluoromethyl)piperidin-3-yl)methyl)imidazo[1,2-b]pyridazin-2-yl)methyl)-1-ethyl-1H-pyrazole-5-carboxamide] stands less than 100 nM.

As usually defined, the IC50 is the concentration that gives 50% inhibition.
